Experimental data from ChEMBL document CHEMBL3758128, “Studies on Aryl-Substituted Phenylalanines: Synthesis, Activity, and Different Binding Modes at AMPA Receptors” (J Med Chem, 2016).

Tests used:
Glutamate receptor 2 [1] = biological target: T1, Glutamate receptor 2 (Rattus norvegicus, UniProt P19491); experiment: Displacement of [3H]AMPA from full length rat cloned GluA2(R)o receptor expressed in sf9 cells incubated for 1 to 2 hrs by liquid scintillation counting method
[2] = biological target: Glutamate receptor ionotropic, kainate 2 (Rattus norvegicus, UniProt P42260); experiment: biochemical
Description: Displacement of [3H]SYM2081 from cloned rat GluK2(V,C,R)A receptor expressed in sf9 cells incubated for 1 to 2 hrs by liquid scintillation counting method

Glutamate receptor 3 = Glutamate receptor 3 (Rattus norvegicus, UniProt P19492); experiment: biochemical
Description: Displacement of [3H]AMPA from rat cloned GluA3o receptor expressed in sf9 cells incubated for 1 to 2 hrs by liquid scintillation counting method

Glutamate receptor 1 = Glutamate receptor 1 (Rattus norvegicus, UniProt P19490); experiment: biochemical
Description: Displacement of [3H]AMPA from rat cloned GluA1o receptor expressed in sf9 cells incubated for 1 to 2 hrs by liquid scintillation counting method

[3] = biological target: Glutamate receptor ionotropic, kainate 3 (Rattus norvegicus, UniProt P42264); experiment: biochemical
Description: Displacement of [3H]SYM2081 from cloned rat GluK3A receptor expressed in sf9 cells incubated for 1 to 2 hrs by liquid scintillation counting method

[4] = biological target: Glutamate receptor ionotropic, kainate 1 (Rattus norvegicus, UniProt P22756); experiment: biochemical
Description: Displacement of [3H]SYM2081 from recombinant rat GluK1(Q)1b receptor expressed in sf9 cells incubated for 1 to 2 hrs by liquid scintillation counting method

Glutamate receptor 2 [5] = biological target: T1, Glutamate receptor 2; experiment: Antagonist activity against recombinant rat GluA2(Q)i expressed in xenopus oocytes assessed as inhibition of L-glutamate-induced […] by two electrode voltage clamp method; format: cell-based
Glutamate receptor 2 [6] = biological target: T2, Glutamate receptor 2 (Homo sapiens, UniProt P42262); experiment: Displacement of [3H]AMPA from GluA2 LBD (unknown origin) incubated for 2 hrs by liquid scintillation counting method
Glutamate receptor 2 [7] = biological target: T2, Glutamate receptor 2; experiment: Agonist activity at human GluA2(Q)i expressed in HEK293 cells assessed as enhancement of glutamate-evoked desensitized current by whole cell patch clamp method; format: cell-based

Sequence of Glutamate receptor 1 (P19490 whole entry): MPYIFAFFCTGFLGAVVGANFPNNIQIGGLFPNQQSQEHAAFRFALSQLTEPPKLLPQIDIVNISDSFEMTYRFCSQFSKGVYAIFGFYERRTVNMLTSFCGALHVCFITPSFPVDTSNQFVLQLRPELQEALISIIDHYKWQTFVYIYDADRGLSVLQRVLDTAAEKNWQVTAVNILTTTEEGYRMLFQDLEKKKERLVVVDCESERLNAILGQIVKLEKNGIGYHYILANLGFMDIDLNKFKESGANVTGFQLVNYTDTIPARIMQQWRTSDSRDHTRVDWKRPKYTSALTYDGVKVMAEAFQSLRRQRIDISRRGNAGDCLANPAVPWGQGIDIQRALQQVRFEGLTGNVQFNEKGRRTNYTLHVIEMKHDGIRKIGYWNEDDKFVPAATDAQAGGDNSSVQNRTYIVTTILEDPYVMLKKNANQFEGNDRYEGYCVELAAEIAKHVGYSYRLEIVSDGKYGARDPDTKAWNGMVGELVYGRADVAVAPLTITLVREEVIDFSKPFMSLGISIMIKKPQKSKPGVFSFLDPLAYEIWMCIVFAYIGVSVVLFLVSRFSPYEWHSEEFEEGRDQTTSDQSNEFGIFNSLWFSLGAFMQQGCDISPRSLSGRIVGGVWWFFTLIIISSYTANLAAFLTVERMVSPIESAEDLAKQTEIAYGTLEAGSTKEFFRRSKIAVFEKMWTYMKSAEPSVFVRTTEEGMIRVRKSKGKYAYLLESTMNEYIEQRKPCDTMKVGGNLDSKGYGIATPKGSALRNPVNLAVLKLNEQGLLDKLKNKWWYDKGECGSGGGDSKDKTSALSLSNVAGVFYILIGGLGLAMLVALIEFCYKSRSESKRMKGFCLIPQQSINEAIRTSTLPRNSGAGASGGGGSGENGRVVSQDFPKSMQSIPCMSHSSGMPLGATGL
Sequence of Glutamate receptor ionotropic, kainate 1 (P22756 whole entry): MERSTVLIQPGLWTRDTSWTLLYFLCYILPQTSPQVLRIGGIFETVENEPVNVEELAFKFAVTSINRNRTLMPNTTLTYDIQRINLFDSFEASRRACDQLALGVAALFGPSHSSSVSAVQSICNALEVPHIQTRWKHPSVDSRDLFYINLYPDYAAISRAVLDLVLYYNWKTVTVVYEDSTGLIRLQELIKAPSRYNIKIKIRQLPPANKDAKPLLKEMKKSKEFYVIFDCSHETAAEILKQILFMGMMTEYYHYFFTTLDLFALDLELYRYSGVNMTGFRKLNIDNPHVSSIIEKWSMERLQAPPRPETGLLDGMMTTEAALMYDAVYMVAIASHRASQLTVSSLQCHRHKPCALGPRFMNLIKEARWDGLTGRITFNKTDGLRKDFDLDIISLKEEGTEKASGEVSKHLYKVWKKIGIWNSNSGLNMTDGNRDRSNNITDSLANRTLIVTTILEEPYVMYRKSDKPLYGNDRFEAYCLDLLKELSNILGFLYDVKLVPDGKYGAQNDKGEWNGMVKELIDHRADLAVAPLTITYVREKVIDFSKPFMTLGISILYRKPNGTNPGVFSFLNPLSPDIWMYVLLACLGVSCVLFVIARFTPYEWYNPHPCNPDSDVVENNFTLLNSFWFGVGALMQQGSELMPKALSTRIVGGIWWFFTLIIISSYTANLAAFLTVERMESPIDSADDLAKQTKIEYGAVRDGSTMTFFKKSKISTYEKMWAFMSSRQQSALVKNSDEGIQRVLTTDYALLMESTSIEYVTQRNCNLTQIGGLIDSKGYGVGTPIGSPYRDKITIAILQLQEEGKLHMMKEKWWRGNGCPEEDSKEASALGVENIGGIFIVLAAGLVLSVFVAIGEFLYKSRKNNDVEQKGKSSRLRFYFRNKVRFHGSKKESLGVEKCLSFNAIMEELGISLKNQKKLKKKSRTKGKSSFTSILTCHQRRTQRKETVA
Sequence of Glutamate receptor 3 (P19492 whole entry): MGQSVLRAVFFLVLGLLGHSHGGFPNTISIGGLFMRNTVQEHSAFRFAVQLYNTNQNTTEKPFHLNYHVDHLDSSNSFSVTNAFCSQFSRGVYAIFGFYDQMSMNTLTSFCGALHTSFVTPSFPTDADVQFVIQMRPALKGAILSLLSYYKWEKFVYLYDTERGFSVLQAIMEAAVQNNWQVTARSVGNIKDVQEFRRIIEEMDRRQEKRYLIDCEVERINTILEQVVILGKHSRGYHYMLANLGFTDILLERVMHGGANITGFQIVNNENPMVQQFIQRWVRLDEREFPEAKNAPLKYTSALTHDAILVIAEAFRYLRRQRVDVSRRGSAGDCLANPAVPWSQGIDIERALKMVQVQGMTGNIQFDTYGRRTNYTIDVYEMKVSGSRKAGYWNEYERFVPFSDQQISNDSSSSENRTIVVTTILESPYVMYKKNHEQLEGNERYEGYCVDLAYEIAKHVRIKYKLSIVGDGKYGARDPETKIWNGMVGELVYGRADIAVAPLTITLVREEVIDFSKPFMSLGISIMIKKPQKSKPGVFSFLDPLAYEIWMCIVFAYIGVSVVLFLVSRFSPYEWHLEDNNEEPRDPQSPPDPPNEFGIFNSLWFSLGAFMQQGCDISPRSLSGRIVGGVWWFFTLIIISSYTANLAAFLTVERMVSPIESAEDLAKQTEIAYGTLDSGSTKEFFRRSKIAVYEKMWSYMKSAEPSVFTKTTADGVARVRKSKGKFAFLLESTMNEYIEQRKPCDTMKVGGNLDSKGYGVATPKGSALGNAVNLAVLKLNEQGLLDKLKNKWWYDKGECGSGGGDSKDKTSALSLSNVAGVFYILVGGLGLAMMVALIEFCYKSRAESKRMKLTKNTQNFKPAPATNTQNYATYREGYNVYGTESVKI
Sequence of Glutamate receptor ionotropic, kainate 3 (P42264 whole entry): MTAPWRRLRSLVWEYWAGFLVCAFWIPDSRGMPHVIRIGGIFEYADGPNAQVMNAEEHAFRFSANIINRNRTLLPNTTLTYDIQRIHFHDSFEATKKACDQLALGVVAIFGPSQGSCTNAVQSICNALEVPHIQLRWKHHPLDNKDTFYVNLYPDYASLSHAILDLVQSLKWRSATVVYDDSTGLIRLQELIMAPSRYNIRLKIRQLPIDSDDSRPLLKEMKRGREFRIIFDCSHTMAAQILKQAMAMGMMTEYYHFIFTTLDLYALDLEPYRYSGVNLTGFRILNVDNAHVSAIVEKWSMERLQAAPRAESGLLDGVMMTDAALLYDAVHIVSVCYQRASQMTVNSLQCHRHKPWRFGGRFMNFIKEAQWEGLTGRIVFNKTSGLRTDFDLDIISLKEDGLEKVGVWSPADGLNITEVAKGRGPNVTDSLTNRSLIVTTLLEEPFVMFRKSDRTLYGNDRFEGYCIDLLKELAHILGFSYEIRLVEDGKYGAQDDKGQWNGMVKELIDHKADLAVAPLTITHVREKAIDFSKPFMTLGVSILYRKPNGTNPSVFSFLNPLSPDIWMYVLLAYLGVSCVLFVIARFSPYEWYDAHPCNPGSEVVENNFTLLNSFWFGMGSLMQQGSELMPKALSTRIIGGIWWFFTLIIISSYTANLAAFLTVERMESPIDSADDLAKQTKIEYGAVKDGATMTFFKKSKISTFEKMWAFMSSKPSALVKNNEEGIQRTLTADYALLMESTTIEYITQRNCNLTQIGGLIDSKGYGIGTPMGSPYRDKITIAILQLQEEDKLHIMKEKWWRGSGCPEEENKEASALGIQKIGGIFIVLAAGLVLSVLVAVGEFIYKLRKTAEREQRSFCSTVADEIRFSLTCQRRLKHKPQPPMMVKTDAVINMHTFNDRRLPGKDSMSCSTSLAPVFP
T1 sequence (P19491 whole entry): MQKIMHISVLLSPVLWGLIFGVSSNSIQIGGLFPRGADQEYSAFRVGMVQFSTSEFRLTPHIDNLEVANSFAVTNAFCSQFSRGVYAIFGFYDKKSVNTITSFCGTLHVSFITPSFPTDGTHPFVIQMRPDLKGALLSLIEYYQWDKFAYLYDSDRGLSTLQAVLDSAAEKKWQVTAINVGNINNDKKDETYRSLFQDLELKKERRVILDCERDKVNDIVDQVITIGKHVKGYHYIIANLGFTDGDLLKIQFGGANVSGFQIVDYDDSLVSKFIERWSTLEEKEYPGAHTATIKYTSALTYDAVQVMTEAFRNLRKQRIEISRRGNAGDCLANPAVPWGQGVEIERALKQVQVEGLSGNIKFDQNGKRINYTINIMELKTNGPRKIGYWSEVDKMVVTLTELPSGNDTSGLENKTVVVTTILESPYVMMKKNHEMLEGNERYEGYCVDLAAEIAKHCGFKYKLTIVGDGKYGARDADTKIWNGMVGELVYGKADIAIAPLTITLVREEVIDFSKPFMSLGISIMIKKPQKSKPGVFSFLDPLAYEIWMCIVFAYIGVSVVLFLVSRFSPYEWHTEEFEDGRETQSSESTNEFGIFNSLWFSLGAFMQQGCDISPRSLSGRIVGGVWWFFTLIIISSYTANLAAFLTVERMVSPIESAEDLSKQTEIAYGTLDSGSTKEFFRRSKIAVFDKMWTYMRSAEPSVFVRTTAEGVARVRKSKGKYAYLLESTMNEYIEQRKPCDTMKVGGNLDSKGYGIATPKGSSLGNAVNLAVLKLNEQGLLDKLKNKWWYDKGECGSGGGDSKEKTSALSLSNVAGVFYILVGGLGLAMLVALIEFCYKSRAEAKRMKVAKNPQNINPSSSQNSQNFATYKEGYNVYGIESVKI
T2 sequence (P42262 whole entry, the tested form may be a part): as the sequence (P19491 whole entry) above, with T191M, A291T, G764R, P852A counted along it
Description for Glutamate NMDA receptor: Displacement of [3H]CGP39653 from NMDA receptor in rat brain homogenate after 60 mins by Packard TopCount microplate scintillation counting method

SMILES | Ki [4] [µM] | Ki (Glutamate NMDA receptor) [µM] | other results
NC(Cc1cc(Cl)c(Cl)c(-c2cccc(O)c2)c1)C(=O)O (racemic) | 92.3 |  | Ki (Glutamate receptor 2 [1]): 5.03 µM; Ki [2]: 78.1 µM; Ki (Glutamate receptor 3): 55.1 µM; Ki (Glutamate receptor 1): 17.1 µM; Ki [3]: 52.3 µM
NC(Cc1cc(Cl)c(Cl)c(-c2ccc(O)nc2)c1)C(=O)O (racemic) | > 50 | > 50 | 
N[C@H](Cc1cc(Cl)c(Cl)c(-c2cncc(O)c2)c1)C(=O)O | > 100 | > 50 | Ki (Glutamate receptor 2 [1]): > 100 µM; Ki [2]: > 100 µM; Ki (Glutamate receptor 3): > 100 µM; Ki (Glutamate receptor 1): > 100 µM; Ki [3]: > 100 µM
Nc1cccc(-c2cc(CC(N)C(=O)O)cc(Cl)c2Cl)c1 (racemic) | > 50 | > 50 | 
N[C@@H](Cc1cc(Cl)c(Cl)c(-c2cncc(O)c2)c1)C(=O)O | > 100 | > 50 | Ki (Glutamate receptor 2 [1]): 1.74 µM; Ki [2]: > 100 µM; Ki (Glutamate receptor 3): 6.88 µM; Ki (Glutamate receptor 1): 6.65 µM; IC50 (Glutamate receptor 2 [5]): 3.7 µM; Ki [3]: > 100 µM; Ki (Glutamate receptor 2 [6]): 2.26 µM
NC(Cc1cc(Cl)c(Cl)c(-c2cncc(O)c2)c1)C(=O)O (racemic) | > 50 | > 50 | 
NC(Cc1cc(Cl)c(Cl)c(-c2ccc(O)c(O)c2)c1)C(=O)O (stereo not given) | > 50 | > 50 | 
NS(=O)(=O)c1cc2c(cc1Cl)NC(C1CC3C=CC1C3)NS2(=O)=O (stereo not given) [CYCLOTHIAZIDE] |  |  | EC50 (Glutamate receptor 2 [7]): 7.6 µM

More lines, main results first:

Ki [4] [µM] | Ki (Glutamate NMDA receptor) [µM] | SMILES | other results
> 50 | > 50 | NC(Cc1cc(Cl)c(Cl)c(-c2cccc(S(N)(=O)=O)c2)c1)C(=O)O (racemic) | 
> 50 | > 50 | NC(Cc1cc(Cl)c(Cl)c(-c2ccc(CO)cc2)c1)C(=O)O (racemic) | 
> 50 | > 50 | NC(Cc1cc(Cl)c(Cl)c(-c2cccc(CO)c2)c1)C(=O)O (racemic) | 
> 50 | > 50 | COc1cccc(-c2cc(CC(N)C(=O)O)cc(Cl)c2Cl)c1 (racemic) | 
> 50 | > 50 | NC(Cc1cc(Cl)c(Cl)c(-c2cc(O)cc(O)c2)c1)C(=O)O (racemic) | 
> 50 | > 50 | NC(Cc1cc(Cl)c(Cl)c(-c2ccc3c(c2)OCCO3)c1)C(=O)O (racemic) | 
> 50 | > 50 | NC(Cc1cc(Cl)c(Cl)c(-c2ccc(S(N)(=O)=O)cc2)c1)C(=O)O (racemic) | 
